Assay results as given in patent US9624164B2, “Phenyl carbamate compounds for use in preventing or treating epilepsy” (Bio-Pharm Solutions Co., Ltd., priority 2011, dated 2017).
Like-named read-outs stand apart in the source and are kept apart here.

Key:
Format in all cases: in vivo
[1] = tested on: male ICR mice; experiment: scPTZ test (subcutaneous pentylenetetrazol-induced clonic seizure), intraperitoneal administration, mice; details: ip
Method: (§1) After Peak time (0.5, 1, 2 and 4 hr) from the administration, PTZ (Pentylenetetrazol) was administered subcutaneously in the concentration capable of inducing 97% intermittent convulsions (mice: 100˜110 mg/kg·bw, 100 ul/g, or rats: 90˜110 mg/kg·bw, 20 ul/g). If clonic seizure was not observed for at least 3 seconds in the PTZ administered animal, it can be considered that the test compound has anti-epilepsy activity.

[2] = tested on: male ICR mice; experiment: MES test (maximal electroshock, corneal electrodes), oral administration, mice
[3] = tested on: male ICR mice; experiment: scPTZ test (subcutaneous pentylenetetrazol-induced clonic seizure), intraperitoneal administration, mice; details: Mouse, ip, read-out: Duration of scPTZ test ED50
[4] = tested on: male SD rats; experiment: scPTZ test (subcutaneous pentylenetetrazol-induced clonic seizure), intraperitoneal administration, rats; details: ip; for ED50: Rat, read-out: Duration of scPTZ test ED50
Method: as §1

[5] = tested on: male SD rats; experiment: MES test (maximal electroshock, corneal electrodes), oral administration, rats
[6] = tested on: mice; experiment: Measurement of neurotoxicity (rotarod, Dunham and Miya); details: protective index
Method: The measurement of neurotoxicity of the test compounds was conducted by the method of Dunham and Miya [Dunham, N. W. and Miya, T. S. 1957. A note on a simple apparatus for detecting neurological deficit in rats and mice. J. Am. Pharm. Assoc. (Baltimore) 46: 208-209]. In the method, motor abilities of the test animals can be determined by observing whether the test animals can walk without falling from a rotator, thereby determining the value of neurotoxicity of each compound. […] They were pre-trained on the rotarod (Rotarod; Columbus instrument, rota-max, USA) at 6 rpm for 5 min 24 hr prior to the test. The peak time was determined by administration test material's random dose for 0.5, 1, 2, 4 hour. […] The ratio of TD50 to ED50 (TD50/ED50) is called as a protective index, and useful as a parameter for comparison of pharmaceutical efficacy and neurotoxicity.

[7] = Mus musculus, mice, at peak time, read-out: ScPTZ test(ip) ED50

With `CC[C@H](OC(N)=O)[C@@H](O)c1ccccc1Cl` [Compound 6, 1-(2-chlorophenyl)-(S)-1-hydroxybutyl-(S)-2-carbamate] the ED50 [1, 7] was 17.9 mg/kg.
In the case of `C[C@H](OC(N)=O)[C@@H](O)c1ccccc1F` [Compound 63, 1-(2-fluorophenyl)-(S)-1-hydroxypropyl-(S)-2-carbamate], the responders at 50 mg/kg ([2]; Mus musculus, injection amount 50 mg/kg, 4 mice, read-out: MES test(po) Protection %) is reported as 100%.
`CC[C@H](OC(N)=O)[C@@H](O)c1ccc(Cl)cc1Cl` [Compound 39, 1-(2,4-dichlorophenyl)-(S)-1-hydroxybutyl-(S)-2-carbamate] was tested, and the ED50 [1, 7] was 24.3 mg/kg.
For `C[C@H](OC(N)=O)[C@@H](O)c1ccccc1Cl` [Compound 1, 1-(2-chlorophenyl)-(S)-1-hydroxypropyl-(S)-2-carbamate], the ED50 ([3]; 6 h) was 52.2 mg/kg, the ED50 ([3]; 8 h) was 80.7 mg/kg and the ED50 ([3]; 12 h) was 201 mg/kg. It also gave an ED50 ([4]; 0.5 h) of 18.9 mg/kg, an ED50 ([4]; 1 h) of 14.5 mg/kg and an ED50 ([4]; 2 h) of 21 mg/kg. For the same compound, the ED50 ([4]; 4 h) was 31 mg/kg, the ED50 ([4]; 8 h) was 41.3 mg/kg and the ED50 ([4]; 12 h) was 76.7 mg/kg. The efficacy duration time ([4]; scPTZ test, rats) was “at least 12 hours”, the ED50 ([1]; Mouse, 0.5 h, read-out: Duration of scPTZ test ED50) was 17.3 mg/kg and the ED50 ([1]; Mouse, 1 h, read-out: Duration of scPTZ test ED50) was 16.9 mg/kg. For the same compound, the ED50 ([1]; Mouse, 2 h, read-out: Duration of scPTZ test ED50) was 15.8 mg/kg, the ED50 ([1]; Mouse, 4 h, read-out: Duration of scPTZ test ED50) was 27.4 mg/kg and the ED50 [1, 7] was 15.8 mg/kg. The efficacy duration time ([1]; scPTZ test, mice) was “at least 12 hours”, the efficacy duration time [5] was “at least 12 hours” and the efficacy duration time ([2]; MES test, mice) was “at least 12 hours”. For the same compound, the “PI (TD50/ED50 in MES)” value [6] was 16.8.
For `CC(OC(N)=O)C(O)c1ccccc1Cl` (racemic) [Compound 3, 1-(2-chlorophenyl)-1-hydroxypropyl-2-carbamate], the ED50 [1, 7] was 15.3 mg/kg and the “PI (TD50/ED50 in MES)” value [6] was 12.0.
With `C[C@H](OC(N)=O)[C@H](O)c1ccccc1Cl` [Compound 5, 1-(2-chlorophenyl)-(R)-1-hydroxypropyl-(S)-2-carbamate] the ED50 [1, 7] was 15 mg/kg and the “PI (TD50/ED50 in MES)” value [6] was 3.3.
With `C[C@H](OC(N)=O)[C@@H](O)c1c(Cl)cccc1Cl` [Compound 37, 1-(2,6-dichlorophenyl)-(S)-1-hydroxypropyl-(S)-2-carbamate] the ED50 [1, 7] was 25.7 mg/kg and the “PI (TD50/ED50 in MES)” value [6] was 5.1.
With `CCCCC(OC(N)=O)C(O)c1ccccc1Cl` (racemic) [Compound 14, 1-(2-chlorophenyl)-1-hydroxyhexyl-2-carbamate] the responders at 200 mg/kg ([2]; Mus musculus, injection amount 200 mg/kg, 4 mice, read-out: MES test(po) Protection %) was 100%.
`CCC(OC(N)=O)C(O)c1ccccc1Cl` (racemic) [Compound 8, 1-(2-chlorophenyl)-1-hydroxybutyl-2-carbamate] was tested, and the responders at 100 mg/kg ([2]; Mus musculus, injection amount 100 mg/kg, 4 mice, read-out: MES test(po) Protection %) was 100%.
For `C[C@@H](OC(N)=O)[C@H](O)c1ccccc1Cl` [Compound 2, 1-(2-chlorophenyl)-(R)-1-hydroxypropyl-(R)-2-carbamate], the ED50 [1, 7] was 38.8 mg/kg and the “PI (TD50/ED50 in MES)” value [6] was 7.3.
